Assay results from patent publication US20240262822A1, “WDR5 INHIBITORS AND MODULATORS” (Vanderbilt University, priority 2021, published 2024).
Where two headings read alike, the source gives them in different places.

What was measured:
WDR5 = biological target: T1, WDR5 (Homo sapiens, UniProt P61964); test: Time Resolved-Fluorescence Energy Transfer (TR-FRET) competition assay, displacement of 10mer-Thr-FAM probe from His-tagged WDR5; format: binding; settings: WDR5-His tag 2 nM, 10mer-Thr-FAM 150 nM, 60 minutes at room temperature
T1 construct: WDR5-His Tag (A23, residues 24-334) is expressed and purified in our lab; made in house
Text: Excess 10mer-Thr-FAM probe was utilized with His-tagged WDR5 in conjunction with a commercial anti-His antibody containing a Terbium label. The LanthaScreen™ Elite Tb-anti-HIS Antibody from ThermoFisher Scientific was used for this purpose. This Tb-anti-HIS has an excitation/emission of 340 nm and 490 nm, respectively. The 10mer-Thr-FAM probe when bound to WDR5 will undergo a FRET interaction with the Tb-anti-HIS and emit at 520 nm. […] WDR5-His Tag (A23, residues 24-334) is expressed and purified in our lab in sufficient quantities for screening. 10mer-Thr-FAM peptide is used at 150 nM. WDR5-His tag protein is used at 2 nM. A source plate is prepared using an Echo Liquid Handler, which distributes the compounds to the assay plate (white, flat-bottom; OptiPlate) in a 10-point, 5-fold dilution schemes with a top concentration of 5 μM, in a final volume of 20 μL. A final target (WDR5)/Tb-Ab concentration of 2 nM/1 nM is dispensed from appropriate stock solutions, respectively. The final DMSO concentration in each well of the assay plate is 1% or lower. The plate is covered, shielded from light, and incubated for 60 minutes at room temperature with rocking. 10mer-Thr-FAM and Anti-His terbium antibody fluorescence is then measured on a Biotek Cytation 3 at excitation wavelength of 340 nm, and emission wavelengths of 495 nm and 520 nm. Working buffer conditions contain 1× Phosphate Buffered Saline, 300 mM NaCl, 0.5 mM TCEP, 0.1% CHAPS, at pH 7.2. TR-FRET signal is plotted and IC50 and Ki values are calculated according to the formula of Wang Z. FEBS Lett (1996) 3, 245.
where […] is the concentration of the free inhibitor at 50% inhibition, [L]50 is the concentration of the free labeled ligand at 50% inhibition, [P]0 is the concentration of the free protein at 0% inhibition, Kd represents the dissociation constant of the FITC-MLL or 10mer-Thr-FAM probe for WDR5. Total fluorescence is also measured, to rule out compounds that are inherently fluorescent or able to act as quenchers in the assay. TR-FRET binding assay

[1] = test system: MV4:11 human cancer cell lines; test: Cellular viability / anti-proliferative activity, CellTiter-Glo, 5 day protocol; format: cell-based; settings: Homo sapiens, 5 day incubation
Description: Anti-proliferative activity using MLL-harboring cell lines. MV-4-11 and K562 cells are grown in IMDM media supplemented with 10% FBS and 1% penicillin/streptomycin, Molm-13 cells are cultured in RPMI-1640 media supplemented with 10% FBS and 1% penicillin/streptomycin. Viability assays are performed by dispensing 200 cells at 7200 cells/mL into each well of an opaque 384-well plate and adding compounds at the indicated concentrations in a final volume of 32 μL and a final concentration of DMSO of 0.3% for all samples. A certain range of compound concentrations is made through a series of 2-fold dilutions starting 30 μM at the highest, total 22 dilutions. After a set incubation period, 5 day protocol, the viability of cells in each well is assessed using the CellTiter-Glo assay (Promega), read on a 96 Microplane Luminometer (Cytation 3, BioTek). Serial dilutions of each cell type are performed in all assays to generate standard curves and the final densities of cells are determined within the dynamic range of the instrument. GI50 values are calculated based on XLfit software (IDBS, Guildford, UK) with Sigmoidal Dose-Response Model. Each compound is tested in minimum of two replicates. Data are expressed as mean.

[2] = read-out: Ki for Exemplified Compounds for Inhibition of WDR5 by TR-FRET assay
[3] = MV4-11, 120 h, MV4:11 cells, read-out: GI50 for representative compounds on cellular proliferation of MV4:11 human cancer cell lines
[4] = read-out: Ki for additional WDR5 inhibitor compounds for Inhibition of WDR5 by TR-FRET assay
[5] = MV4-11, 120 h, MV4;11 cells, read-out: GI50 for additional WDR5 inhibitor compounds on cellular proliferation of MV4;11 human cancer cell lines

Row | Structure (SMILES) | Ki (WDR5; [2]) [nM] | GI50 [1, 3] [nM] | Ki (WDR5; [4]) [nM] | GI50 [1, 5] [nM] | GI50 ([1]; 120 h, MV4;11 cells, read-out: GI50 for additional WDR5 inhibitor compounds on cellular proliferation of MV4;11 human cancer cell lines) [nM]
1 | COCCOc1cc2ncnc(N3CCc4c(cc(Cn5ccnc5)cc4-c4cn(C)nc4C(F)(F)F)C3=O)c2cc1OC [Example 25, 7-((1H-Imidazol-1-yl)methyl)-2-(6-methoxy-7-(2-methoxyethoxy)quinazolin-4-yl)-5-(1-methyl-3-(trifluoromethyl)-1H-pyrazol-4-yl)-3,4-dihydroisoquinolin-1(2H)-one] | 0.036 | 310 |  |  | 
2 | CCc1cc2c(N3CCc4c(cc(Cn5ccnc5)cc4-c4cn(C)nc4C(F)(F)F)C3=O)ccnc2c(=O)[nH]1 [Example 7, 4-(7-((1H-Imidazol-1-yl)methyl)-5-(1-methyl-3-(trifluoromethyl)-1H-pyrazol-4-yl)-1-oxo-3,4-dihydroisoquinolin-2(1H)-yl)-6-ethyl-1,7-naphthyridin-8(7H)-one and 7-((1H-imidazol-1-yl)methyl)-2-(6-ethyl-8-hydroxy-1,7-naphthyridin-4-yl)-5-(1-methyl-3-(trifluoromethyl)-1H-pyrazol-4-yl)-3,4-dihydroisoquinolin-1(2H)-one mixture] | < 0.02 | 1990 |  |  | 
3 | CCc1cc(C(N)=O)c2nccc(N3CCc4c(cc(Cn5ccnc5C)cc4-c4cn(C)nc4C(F)(F)F)C3=O)c2c1 [Example 6, 6-Ethyl-4-(7-((2-methyl-11H-imidazol-1-yl)methyl)-5-(1-methyl-3-(trifluoromethyl)-1H-pyrazol-4-yl)-1-oxo-3,4-dihydroisoquinolin-2(1H)-yl)quinoline-8-carboxamide] | < 0.02 | < 20 |  |  | 
4 | CCc1nc(N2CCc3c(cc(Cn4ccnc4)cc3-c3cn(C)nc3C(F)(F)F)C2=O)c2cc(OC)c(OC)cc2n1 [Example 63, 7-((1H-Imidazol-1-yl)methyl)-2-(2-ethyl-6,7-dimethoxyquinazolin-4-yl)-5-(1-methyl-3-(trifluoromethyl)-1H-pyrazol-4-yl)-3,4-dihydroisoquinolin-1(2H)-one] | < 0.02 | < 20 |  |  | 
5 | COc1cc2c(N3CCc4c(cc(Cn5ccnc5)cc4-c4cn(C)nc4C(F)(F)F)C3=O)ncnc2cc1OCc1ccnn1C [Example 26, 7-((1H-Imidazol-1-yl)methyl)-2-(6-methoxy-7-((1-methyl-1H-pyrazol-5-yl)methoxy)quinazolin-4-yl)-5-(1-methyl-3-(trifluoromethyl)-1H-pyrazol-4-yl)-3,4-dihydroisoquinolin-1(2H)-one] | < 0.02 | 76 |  |  | 
6 | CCOc1nc(CC)cc2c(N3CCc4c(cc(Cn5ccnc5)cc4-c4cn(C)nc4C(F)(F)F)C3=O)ccnc12 [Example 36, 7-((1H-Imidazol-1-yl)methyl)-2-(8-ethoxy-6-ethyl-1,7-naphthyridin-4-yl)-5-(1-methyl-3-(trifluoromethyl)-1H-pyrazol-4-yl)-3,4-dihydroisoquinolin-1(2H)-one] | < 0.02 | < 20 |  |  | 
7 | CCc1cc2c(N3CCc4c(cc(Cn5ccnc5)cc4-n4nc(C)cc4C(F)(F)F)C3=O)ccnc2c(OC)n1 [Example 47, 7-((1H-Imidazol-1-yl)methyl)-2-(6-ethyl-8-methoxy-1,7-naphthyridin-4-yl)-5-(3-methyl-5-(trifluoromethyl)-1H-pyrazol-1-yl)-3,4-dihydroisoquinolin-1(2H)-one] | 0.024 | 296 |  |  | 
8 | CCc1cc(C2CCOCC2)c2nccc(N3CCc4c(cc(Cn5ccnc5)cc4-c4cn(C)nc4C(F)(F)F)C3=O)c2c1 [Compound B-36] |  |  | < 0.02 | 23 | 
9 | CCc1cc2c(N3CCc4c(cc(Cn5ccnc5)cc4-c4cn(C)nc4C(F)(F)F)C3=O)ccnc2c(COC)n1 [Example 52, 7-((1H-Imidazol-1-yl)methyl)-2-(6-ethyl-8-(methoxymethyl)-1,7-naphthyridin-4-yl)-5-(1-methyl-3-(trifluoromethyl)-1H-pyrazol-4-yl)-3,4-dihydroisoquinolin-1(2H)-one] | 0.03 | 80 |  |  | 
10 | COc1cc2nncc(N3CCc4c(cc(Cn5ccnc5)cc4-c4cn(C)nc4C(F)(F)F)C3=O)c2cc1OC [Example 49, 7-((1H-Imidazol-1-yl)methyl)-2-(6,7-dimethoxycinnolin-4-yl)-5-(1-methyl-3-(trifluoromethyl)-1H-pyrazol-4-yl)-3,4-dihydroisoquinolin-1(2H)-one] | < 0.02 | < 20 |  |  | 
11 | CCOc1cc2ncnc(N3CCc4c(cc(Cn5ccnc5)cc4-c4cn(C)nc4C(F)(F)F)C3=O)c2cc1OCC [Example 30, 7-((1H-Imidazol-1-yl)methyl)-2-(6,7-diethoxyquinazolin-4-yl)-5-(1-methyl-3-(trifluoromethyl)-1H-pyrazol-4-yl)-3,4-dihydroisoquinolin-1(2H)-one] | < 0.02 | 47 |  |  | 
12 | CCc1cc(OC)c2ncnc(N3CCc4c(cc(Cn5ccnc5)cc4-c4cn(C)nc4C(F)(F)F)C3=O)c2c1 [Example 27, 7-((1H-imidazol-1-yl)methyl)-2-(6-ethyl-8-methoxyquinazolin-4-yl)-5-(1-methyl-3-(trifluoromethyl)-1H-pyrazol-4-yl)-3,4-dihydroisoquinolin-1(2H)-one] | < 0.02 | < 20 |  |  | 
13 | COc1cc2nc(N3CCOCC3)nc(N3CCc4c(cc(Cn5ccnc5)cc4-c4cn(C)nc4C(F)(F)F)C3=O)c2cc1OC [Example 56, 7-((1H-Imidazol-1-yl)methyl)-2-(6,7-dimethoxy-2-morpholinoquinazolin-4-yl)-5-(1-methyl-3-(trifluoromethyl)-1H-pyrazol-4-yl)-3,4-dihydroisoquinolin-1(2H)-one] | < 0.02 | < 20 |  |  | 
14 | COc1cc2ncnc(N3CCc4c(cc(Cn5ccnc5)cc4-c4cn(C)nc4C(F)(F)F)C3=O)c2cc1OC [Example 24, 7-((1H-Imidazol-1-yl)methyl)-2-(6,7-dimethoxyquinazolin-4-yl)-5-(1-methyl-3-(trifluoromethyl)-1H-pyrazol-4-yl)-3,4-dihydroisoquinolin-1(2H)-one] | < 0.02 | 25 |  |  | 
15 | COc1cc2nc(C)nc(N3CCc4c(cc(Cn5ccnc5)cc4-c4cn(C)nc4C)C3=O)c2cc1OC [Example 65, 7-((1H-Imidazol-1-yl)methyl)-2-(6,7-dimethoxy-2-methylquinazolin-4-yl)-5-(1,3-dimethyl-1H-pyrazol-4-yl)-3,4-dihydroisoquinolin-1(2H)-one] | 0.023 | 43 |  |  | 
16 | COc1cc(N(C)C)c2nccc(N3CCc4c(cc(Cn5ccnc5)cc4-c4cn(C)nc4C(F)(F)F)C3=O)c2c1 [Compound B-35] |  |  | < 0.02 | 76 | 
17 | COc1cc(C(=O)NC2CN(C(=O)C3CCOCC3)C2)c2nccc(N3CCc4c(cc(Cn5ccnc5)cc4-c4cn(C)nc4C(F)(F)F)C3=O)c2c1 [Compound B-229] |  |  | < 0.02 | 26 | 
18 | CCc1cc(N)c2nccc(N3CCc4c(cc(Cn5ccnc5)cc4-c4cn(C)nc4C(F)(F)F)C3=O)c2c1 [Compound B-230] |  |  |  |  | 54
19 | CCc1cc(NC(C)=O)c2nccc(N3CCc4c(cc(Cn5ccnc5)cc4-c4cn(C)nc4C(F)(F)F)C3=O)c2c1 [Compound B-231] |  |  |  | < 20 | 
20 | CNC(=O)c1cc(OC)cc2c(N3CCc4c(cc(Cn5ccnc5)cc4-c4cn(C)nc4C(F)(F)F)C3=O)ccnc12 [Compound B-42] |  |  |  | < 20 | 
